Data taken from PubChem BioAssay AID489033 (Sanford-Burnham Center for Chemical Genomics, 2010).
Calls of active or inactive are those of the source. No rule for the calls is given here.

Test system: 697B B-cell line, NF-kB luciferase reporter luminescence
Test: inhibitors of B-cell NF-kB luciferase signal – 697B cells, luminescence, selectivity assay for T-cell antigen receptor NF-kB inhibitors, dose response (AID 489033)

SMILES | IC50
O=C(NCc1ccc2c(c1)OCO2)c1cc([N+](=O)[O-])ccc1N1CCOCC1 | > 80 µM (inactive)
COC(=O)Cc1[nH]n(-c2nc3ccccc3s2)c(=O)c1C(C)=Nc1ccc(OC)cc1 | 4.93 µM
CCN1/C(=C/C(C)=C/c2sc3ccccc3[n+]2CC)Sc2ccccc21 | 2.42 µM
CCCCCCCCCCCCCCCC[n+]1cccc(C(=O)N(CC)CC)c1 | 3.3 µM
Cc1c(C)c2cccnc2c2ncccc12 | 6.81 µM
CCOC(=O)c1ccc(Nc2nc(N)c3cc(OC)c(OC)cc3n2)cc1 | > 80 µM (inactive)
Cc1ccc(NC(=O)c2cc3ccccc3oc2=O)cc1S(=O)(=O)N(C)C | < 0.16 µM
C[C@]12CC[C@@H]3c4cc(O)c(O)cc4CC[C@H]3[C@@H]1CC[C@@H]2O | 14.3 µM
CCC1CCCCN1C(=O)c1cc(COc2ccc3ncccc3c2)on1 (centres undefined) | > 80 µM (inactive)
Cc1ccnc2c1ccc1c(C)ccnc12 | 10.1 µM
Cc1ccc(C(=O)O/N=C(\N)c2ccccn2)c(Cl)c1 | 0.86 µM
O=S1(=O)Nc2c(ccc3cccnc23)-c2ccccc21 | 0.54 µM
COc1ccc(/C=N/NC(=O)c2[nH]c3ccc(Br)cc3c2-c2ccccc2)cc1 | > 80 µM (inactive)
CCOc1ccc(N/C(N)=N/c2nc(CSc3nnc(C)s3)cc(=O)[nH]2)cc1 | > 80 µM (inactive)
c1ccc(-c2cccc(-c3ccccn3)n2)nc1 | 6.4 µM
O=C(Nc1ccc(N2CCCCC2)cc1)c1ccccn1 | 0.41 µM
O=C(Nc1ccc(S(=O)(=O)Nc2ccccc2)cc1)c1ccc(CN2CCOCC2)cc1 | 46.1 µM (inactive)
C[C@@H]1O[C@@H](O[C@H]2C[C@@H](O)[C@]3(CO)[C@H]4[C@H](O)C[C@]5(C)[C@@H](C6COC(=O)C6)CC[C@]5(O)[C@@H]4CC[C@]3(O)C2)[C@H](O)[C@H](O)[C@H]1O (some centres undefined) | 3.72 µM
O=C(Nc1cccc2ccccc12)OC1C=CS(=O)(=O)C1 (centres undefined) | 10.7 µM
O=[N+]([O-])c1ccc(-c2nc(C(Cl)Cl)c3ccccc3n2)cc1 | 1.6 µM
O=C(Nc1ccc(S(=O)(=O)N2CCCCC2)cc1)c1ccc(CN2CCOCC2)cc1 | 51.2 µM (inactive)
COC(=O)CCC(=O)NC(=S)Nc1sc(C)c(C)c1C(N)=O | > 80 µM (inactive)
CCS(=O)(=O)c1ncc(Cl)c(C(=O)Nc2ccc(S(=O)(=O)N(C)c3ccccc3)cc2)n1 | 1.42 µM
Cc1nc2ccccc2c2c1CC(C(C)(Cl)Br)O2 (centres undefined) | 22.8 µM (inactive)

SMILES | IC50
CCCCn1c2c(c(=N)c3c1CCC3)CCC2 | > 80 µM (inactive)
CC(C)(C)c1csc(Sc2ccc([N+](=O)[O-])cn2)n1 | 10.2 µM
Clc1ccc(CSc2nncn2-c2ccc3c(c2)OCCO3)cc1 | 70 µM (inactive)
O=C(NNc1ccnc2cc(Cl)ccc12)C1CCCCC1 | > 80 µM (inactive)
O=C(NN=Cc1c(O)ccc2ccccc12)c1ccc2c(c1)OCO2 | > 80 µM (inactive)
COc1ccc(/C=C2/C(=O)OCc3cc(OC)c(OC)cc32)cc1 | > 80 µM (inactive)
CC(C)Nc1ccc(C(CC(N)=O)NC(=O)c2ccc(Br)cc2)cc1[N+](=O)[O-] (centres undefined) | > 80 µM (inactive)
O=C(Nc1nc2ccc(S(=O)(=O)N3CCCC3)cc2s1)C1CCCCC1 | > 80 µM (inactive)
Cc1ccc(C)c(NS(=O)(=O)c2ccc(-c3cnc(C4CC4)o3)cc2)c1 | > 80 µM (inactive)
COC(=O)c1ccccc1NC(=O)CSc1nc(-c2ccco2)cc(C(F)(F)F)n1 | > 80 µM (inactive)
COc1cc(C2C(C#N)=C(N)Oc3cc(N(C)C)ccc32)cc2c1OCO2 (centres undefined) | > 80 µM (inactive)
CCOc1ccc(S(=O)(=O)NCc2ccccn2)cc1NC(=O)c1ccccc1F | > 80 µM (inactive)
CCOCCCNC(=O)c1ccc2c(c1)N=C(CC)c1cc(Br)ccc1S2 | > 80 µM (inactive)
Cc1nn(-c2ccccc2Cl)c(Cl)c1/C=N/Nc1nc2ccccc2s1 | < 0.16 µM
O=C(c1ccccc1)c1cc([N+](=O)[O-])ccc1N1CCOCC1 | > 80 µM (inactive)
COc1ccc(OC)c(NS(=O)(=O)c2ccc(N3CCCC3=O)cc2)c1 | > 80 µM (inactive)
CCOc1ccc2c(c1)OC(c1ccc(OC)cc1)(C(F)(F)F)NC2=O (centres undefined) | > 80 µM (inactive)
COC(=O)Nc1ccc(S(=O)(=O)N2c3ccccc3CCC2C)cc1 (centres undefined) | > 80 µM (inactive)
CCC(C)(C)c1ccc(OCCCC[n+]2cccc(C)c2C)c(C(C)(C)CC)c1 | 16.2 µM
COc1ccccc1CNS(=O)(=O)c1ccc(-c2cnc(C3CC3)o2)cc1 | > 80 µM (inactive)
COc1ccc2c(c1)/C(=C/c1cnc[nH]1)C(=O)N2 | 4.8 µM
CCCCCCCCn1c2c(c(=N)c3c1CCC3)CCCC2 | 27.5 µM (inactive)
COc1cccc(/C=N/Nc2ccc(C(=O)O)cc2)c1O | 0.83 µM
COc1ccc(Nc2ncnc3ccc(Br)cc23)c(OC)c1 | 0.37 µM

SMILES | IC50
CCCCCCCOc1ccc(OC(=O)c2cccnc2)cc1 | > 80 µM (inactive)
Oc1ccccc1N=Nc1nc(-c2ccccc2)c(-c2ccccc2)[nH]1 | 4.55 µM
CC(=O)c1ccc(Oc2cc(C)nc(-n3nc(C)cc3C)n2)cc1 | > 80 µM (inactive)
Cc1ccc2oc(/N=C(\N)NC(=O)C(C)(C)C)nc2c1 | 0.47 µM
COc1ccc(OC)c(C2CC(=O)c3c([nH]c(C(=O)OC(C)C)c3C)C2)c1 (centres undefined) | > 80 µM (inactive)
CCc1ccc(/C=N/NC(=O)c2cc(-c3ccncc3)nc3ccccc23)s1 | 4.09 µM
CCN(CC)c1ccc(/C=N/NC(=O)c2nnn(-c3nonc3N)c2C(C)C)c(O)c1 | 1.5 µM
CCc1ccc(S(=O)(=O)/N=C2\C=C(Nc3ccc(O)cc3)C(=O)c3ccccc32)cc1 | 5.19 µM
COc1ccc(NC(=O)/C(Cl)=C(/Cl)S(=O)Cc2ccc(Cl)cc2)cn1 (centres undefined) | 0.18 µM
Cc1cc(=O)oc2cc(OCC3CC(c4ccccc4Cl)=NO3)ccc12 (centres undefined) | > 80 µM (inactive)
CC(C)Oc1ccccc1C1CC(=O)Nc2cc3c(cc21)OCO3 (centres undefined) | > 80 µM (inactive)
COc1ccccc1C(=O)Nc1nc2ccccc2s1 | 0.53 µM
COc1ccc(OCC(=O)Nc2ccccc2N2CCCCC2)cc1 | > 80 µM (inactive)
COc1cc(C2c3cc4c(cc3CC3COC(=O)C32)OCO4)cc(OC)c1OC (centres undefined) | > 80 µM (inactive)
COc1ccccc1C1=NOC(COc2ccc3c(C)cc(=O)oc3c2)C1 (centres undefined) | > 80 µM (inactive)
Cc1ccc(NS(=O)(=O)c2ccc(-c3cnc(C4CC4)o3)cc2)c(C)c1 | > 80 µM (inactive)
COc1ccc(Br)cc1/C(C)=N/NC1=NCCN1 | > 80 µM (inactive)
O=C(COc1ccc2c(-c3ccccc3)cc(=O)oc2c1)Nc1cccnc1 | > 80 µM (inactive)
COc1ccc2c(c1)C(=O)N1[C@H]3c4cc(Br)ccc4OC[C@@H]3[C@H](c3ccccc3)[C@]1(C)C(=O)N2 | > 80 µM (inactive)
CCCOC(=O)c1[nH]c2c(c1C)C(=O)CC(c1cccs1)C2 (centres undefined) | > 80 µM (inactive)
CCCCCCCCCCn1c2c(c(=N)c3c1CCC3)CCC2 | 2.68 µM
Cc1ccc2nc(SCC(=O)Nc3cc(C(F)(F)F)ccc3N3CCOCC3)[nH]c2c1 | > 80 µM (inactive)
COc1ccccc1NC(=O)Cn1nnc(C(=O)NCc2cccs2)c1N | > 80 µM (inactive)
COC(=O)c1[nH]c2ccc(Br)cc2c1NC(=O)CN1CCN(C2CCCCC2)CC1 | 8.88 µM

SMILES | IC50
CC1=NNC(=O)/C1=C\c1cn(-c2ccccc2)nc1-c1ccc(Cl)cc1 | 6.48 µM
CCCCCCCCn1c2c(c(=N)c3ccccc31)CCC2 | 2.31 µM
CN(C)c1ccc(-c2nn3c(-c4ccccc4Cl)nnc3s2)cc1 | > 80 µM (inactive)
CC1=C(C(=O)OCc2ccc3c(c2)OCO3)C(c2ccc(Cl)cc2)NC(=O)N1 (centres undefined) | 0.46 µM
CCC/C(O)=C1\C(=O)CC(C)(C)CC1=Nc1ccc(OC)cc1OC | > 80 µM (inactive)
COc1cc(/C=C/C(=O)c2ccc([N+](=O)[O-])o2)ccc1O | 14.5 µM
CC(C)Cn1c(N)c(C(=O)CSc2ccc3c(c2)OCCO3)c(=O)n(C)c1=O | 51.7 µM (inactive)
Cn1ncc2c(N3CCN(c4ccc(Cl)c(Cl)c4)CC3)ncnc21 | > 80 µM (inactive)
Cc1cc(C)c(S(=O)(=O)Nc2ccc3c4c(cccc24)CC3)c(C)c1 | > 80 µM (inactive)
CCOC(=O)c1[nH]c2c(c1C)C(=O)CC(c1ccco1)C2 (centres undefined) | > 80 µM (inactive)
CC(C)(C)c1ccc(C(=O)O/N=C(\N)c2ccccc2)cc1 | 0.17 µM
O=C(Nc1ccn(Cc2ccccc2F)n1)c1ccc(COc2ccc(Br)cc2)cc1 | > 80 µM (inactive)
COc1cc(C2=NOC(C(=O)NCc3ccc(F)cc3)C2)cc(OC)c1OC (centres undefined) | > 80 µM (inactive)
COc1ccc(C(=O)c2ccc(N(C)C)cc2)c(OC)c1 | > 80 µM (inactive)
Cc1ccc(N(C)S(=O)(=O)c2ccc(-c3cnc(C4CC4)o3)cc2)cc1 | 67.6 µM (inactive)
Clc1cccc(Cl)c1/C=N/Nc1c(Cl)cncc1Cl | > 80 µM (inactive)
CC(Oc1ccc(Cl)cc1Cl)c1nc(-c2ccc(NC(=O)c3ccncc3)cc2)no1 (centres undefined) | 29.5 µM (inactive)
Cc1cc(C)cc(NS(=O)(=O)c2ccc(-c3cnc(C4CC4)o3)cc2)c1 | 53.1 µM (inactive)
CCc1cc2c(=O)nc3n(c2s1)Cc1ccccc1/C3=C(/O)c1cccc([N+](=O)[O-])c1 | > 80 µM (inactive)
O=S(=O)(c1cc(F)ccc1F)N1CCN(c2ncnc3ccccc23)CC1 | 74.1 µM (inactive)
COc1ccc(Nc2cc(C)nc(-n3nc(C)cc3C)n2)cc1 | > 80 µM (inactive)
CCOc1ccc2c(c1)sc(N)[n+]2Cc1cc(C)cc2cccnc12 | 33.3 µM (inactive)
